Legend:
H460 cells [1] = test: glycolysis assay (3H2O from 5-[3H]glucose); format: cell-based, human
Description: H460 cells were exposed to the indicated concentrations of MPN-2 and glycolysis production was examined. Cells growing in 6-well plates were incubated in 500 μl of complete medium containing 1 μCi of 5-[^3H]glucose per well for 60 min in 5% CO2 at 37° C. Media was collected, ^3H2O formed via glycolysis from the 5-[^3H]glucose measured and counts normalized as previously described. For example, the medium was then collected and centrifuged to pellet any suspended cells. To separate the ^3H2O formed via glycolysis from the 5-[^3H]glucose added to the medium, an evaporation technique in a sealed system was utilized. Briefly, 150 μl aliquots of medium were added to open tubes that were placed upright inside scintillation vials containing 1 ml of H2O. The scintillation vials were sealed, and the ^3H2O produced by glycolysis through enolase and released to the medium was allowed to equilibrate with the H2O in the outer vial for 48 h at 37° C. The amounts of ^3H2O that had diffused into the surrounding H2O was measured on a Tri-Carb 2910 liquid scintillation analyzer (Perkin Elmer) and compared with ^3H2O and 5-[^3H]glucose standards. Protein concentration was determined using the BCA assay and counts were normalized to protein concentration. All data are expressed as the mean±SD of three experiments. Statistical significance was assessed by the two-sample t test (independent variable).
Method: To examine glycolysis, H460 cells growing in 6-well plates were incubated in 500 μl of complete medium containing 1 μCi of 5-[^3H] glucose per well for 60 min in 5% CO2 at 37° C. The medium was then collected and centrifuged to pellet any suspended cells. To separate the ^3H2O formed via glycolysis from the 5-[^3H]glucose added to the medium, an evaporation technique in a sealed system was utilized. Briefly, 150 μl aliquots of medium were added to open tubes that were placed upright inside scintillation vials containing 1 ml of H2O. The scintillation vials were sealed, and the ^3H2O produced by glycolysis through enolase and released to the medium was allowed to equilibrate with the H2O in the outer vial for 48 h at 37° C. The amounts of ^3H2O that had diffused into the surrounding H2O was measured on a Tri-Carb 2910 liquid scintillation analyzer (Perkin Elmer) and compared with ^3H2O and 5-[^3H]glucose standards. Protein concentration was determined using the BCA assay and counts were normalized to protein concentration (previously described in CHESNEY et al. Oncotarget. 2014; 5(16):6670-6686.)

H460 cells [2] = test: intracellular ATP measurement; format: cell-based, human
Description: H460 cells were exposed to the indicated concentrations of MPN-2 and ATP production was examined. Cells were lysed and intracellular ATP determined as described previously. For example, cells were washed (while still adherent) with cold PBS 1×, lysed with Passive Lysis Buffer (1×; Molecular Probes, Invitrogen) added directly to the plates, and immediately harvested by scraping. The lysates were flash frozen (to −80° C.) and thawed (to 37° C.) once to accomplish complete lysis and then centrifuged (at 4° C.) for 30 seconds to clear the lysates. Intracellular ATP levels were determined using a bioluminescence assay (Molecular Probes), utilizing recombinant firefly luciferase and its substrate, D-luciferin. The luminescence was read in a TD-20/20 luminometer (Turner Designs) at 560 nm. The ATP values were calculated using an ATP standard curve. The protein concentrations of the lysates were estimated using the BCA assay (Pierce Biotechnology) and ATP was expressed as pmol/μg protein. All data are expressed as the mean±SD of three experiments. Statistical significance was assessed by the two-sample t test (independent variable).

PFK-1 = PFK-1 kinase activity; format: biochemical; settings: 10 μM
[3] = two-week oral toxicity study; format: in vivo; settings: 120 mg/kg PO for two weeks
Description: Given the potential usefulness of oral administration in terms of cost and convenience, we elected to pursue this route in subsequent toxicity and efficacy pre-clinical studies. Initially, we dosed C57BL/6 mice with 120 mg/kg PO for two weeks and analyzed the effect on complete blood counts, electrolytes, hepatic and renal function, body mass and the gross and histological appearance of the brain, heart, lungs, liver, kidneys and spleen. […] Next, the effects of oral administration of 5MPN on intratumoral F2,6BP and glucose uptake by LLC xenografts was examined. There was a reduction in F2,6BP (FIG. 4E) and 2-[^18F]-fluoro-2-deoxyglucose uptake using positron emission tomography (FIG. 4F). It was confirmed that 5MPN caused a G1 arrest in LLC cells in vitro similar to H460 cells (FIG. 4G). The number of Ki67-positive cells was examined since Ki-67 expression correlated with later S and G2 phases of the cell cycle (SASAKI et al. “The cell cycle associated change of the Ki-67 reactive nuclear antigen expression” J Cell Physiol (1987) Vol. 133, No. 3, pp. 579-584).

cancer cells = test: glycolysis assay (3H2O from 5-[3H]glucose); format: cell-based; settings: increasing concentrations
Description: Method: To examine glycolysis, cells growing in 6-well plates were incubated in 500 μl of complete medium containing 1 μCi of 5-[^3H] glucose per well for 60 min in 5% CO2 at 37° C. The medium was then collected and centrifuged to pellet any suspended cells. To separate the ^3H2O formed via glycolysis from the 5-[^3H]glucose added to the medium, an evaporation technique in a sealed system was utilized. Briefly, 150 μl aliquots of medium were added to open tubes that were placed upright inside scintillation vials containing 1 ml of H2O. The scintillation vials were sealed, and the ^3H2O produced by glycolysis through enolase and released to the medium was allowed to equilibrate with the H2O in the outer vial for 48 h at 37° C. The amounts of ^3H2O that had diffused into the surrounding H2O was measured on a Tri-Carb 2910 liquid scintillation analyzer (Perkin Elmer) and compared with ^3H2O and 5-[^3H]glucose standards. Protein concentration was determined using the BCA assay and counts were normalized to protein concentration (previously described in CHESNEY et al., “Fructose-2,6-bisphosphate synthesis by 6-phosphofructo-2-kinase/fructose-2,6-bisphosphatase 4 (PFKFB4) is required for the glycolytic response to hypoxia and tumor growth” Oncotarget (2014) Vol. 5, No. 16, pp. 6670-6686, which is herein incorporated by reference in its entirety).

[4] = H460, indicated concentrations of MPN-2, 48 hours

## 5-[(8-methoxy-2-methylquinolin-1-ium-4-yl)amino]pentyl nitrate [MPN-2]
H460 cells [1]; [4]
  intracellular glycolysis: decreased
H460 cells [2]; [4]
  ATP production: decreased

## COc1cccc2c(NCCCCCO[N+](=O)[O-])ccnc12 [5MPN, 5-[(8-methoxyquinolin-4-yl)amino]pentyl nitrate]
H460 cells [1]; H460, 10 μM 5MPN, 6-72 hours
  glycolysis: reduced
PFK-1
  inhibition of kinase activity: did not inhibit
H460 cells [2]; H460, 10 μM 5MPN, 6-72 hours
  ATP: reduced
[3]
  signs of toxicity (blood counts, electrolytes, hepatic and renal function, body mass, histology, behavior): no signs of toxicity

## COc1cccc2c(NCCCCCNC(=O)C(F)(F)F)ccnc12 [Formula (VIII), 2,2,2-trifluoro-N-(5-((8-methoxyquinolin-4-yl)amino)pentyl)acetamide]
Cancer cells
  glycolysis (production of 3H2O relative to DMSO): dose-dependent decrease
